Test results: patent US7642047B2, “Method of screening cell death modulators” (priority 2003, dated 2010)

B1: GDNF: human GDNF (PeproTech), glial cell line-derived neurotrophic factor (protein, UniProt P39905 78-211, looked up)
Glial cell line-derived …: SPDKQMAVLPRRERNRQAAAANPENSRGKGRRGQRGKNRGCVLTAIHLNVTDLGLGYETKEELIFRYCSGSCDAAETTYDKILKNLSRNRRLVSDKVGQACCRPIAFDDDLSFLDDNLVYHILRKHSAKRCGCI

Columns and labels:
[1] = tested on: GDNF-deprived sympathetic neurons; test: Survival assay of GDNF-deprived sympathetic neurons; assay type: cell-based, rat; design: protection of GDNF-deprived neurons (FIG. 5B legend): dose or concentration left out as unconfirmed
Procedure: (§1) Briefly, the neurons of postnatal day-1-2 Han/Wi strain rats were grown six days in vitro on polyornithine -laminin-coated dishes or glass coverslips with 100 ng/ml of human GDNF (PeproTech) or 30 ng/ml of 2.5 S mouse NGF (Promega). […] To reduce the number of nonneuronal cells, 1 μM cytosine arabinoside (Sigma-Aldrich) was always included next day after plating, but was not added to factor-deprived neurons. To deprive GDNF, the cultures were washed gently three times with GDNF-free culture medium. To remove NGF, the cultures were washed once with NGF-free medium and function-blocking anti-NGF antibodies (Roche) were added. The compounds of interest were added and initial neurons were counted immediately after neurotrophic factor deprivation. Living neurons were counted daily by a “blind” experimenter not aware of the identity of experimental groups. The following compounds were assayed: broad-range caspase inhibitor boc-aspartyl(OMe) -fluoromethylketone. […] When the compounds were dissolved in DMSO, the same amount of DMSO was always added to the control cultures.
(§2) In all studies described below, the neurons from newborn rat SCG were maintained in sister dishes with GDNF (100 ng/ml) or NGF (30 ng/ml) for six DIV, then deprived of these factors for 48 or 72 hours, and analysed. NGF- and GDNF-responsive neurons were always analysed in parallel and received identical treatment.

[2] = tested on: NGF-deprived sympathetic neurons; test: Survival assay of NGF-deprived sympathetic neurons; assay type: cell-based, rat; design: protection of NGF-deprived neurons (FIG. 5B legend): dose or concentration left out as unconfirmed
Procedure: as §1, §2

[3] = tested on: newborn rat sympathetic neurons from the superior cervical ganglion; test: Survival of newly isolated sympathetic neurons maintained with neurotrophic factor; assay type: cell-based
Procedure: FIGS. 1A, 1B, and 1C. […] (1A) Newly isolated neurons were grown with GDNF (100 ng/ml), NGF (30 ng/ml) or without neurotrophic factors for eight days. The living neurons were counted daily and expressed as percent of initial neurons, counted two hours after plating. The mean±standard error of the mean of three independent cultures is shown for each data point. (1B) Newly isolated neurons were maintained with different doses of GDNF for six days. The living neurons were counted daily and expressed as percent of initial neurons, counted two hours after plating. For comparison, survival with NGF (30 ng/ml) is also shown. […] Living neurons were counted daily and expressed as percent of initial neurons counted immediately after factor deprivation. […]
Briefly, the neurons of postnatal day-1-2 Han/Wi strain rats were grown six days in vitro on polyornithine -laminin-coated dishes or glass coverslips with 100 ng/ml of human GDNF (PeproTech) or 30 ng/ml of 2.5 S mouse NGF (Promega). […] The compounds of interest were added and initial neurons were counted immediately after neurotrophic factor deprivation. Living neurons were counted daily by a “blind” experimenter not aware of the identity of experimental groups. […]
In similar conditions, about 98% of the NGF-maintained neurons had survived (FIG. 1 A). […] NGF- and GDNF-responsive neurons were always analysed in parallel and received identical treatment. […]

[4] = BAF at 50 μM, living neurons counted 72 h after deprivation
[5] = living neurons counted 72 h after treatment and deprivation

| Molecule | effect on death of GDNF-deprived neurons [1, 4] | protection of GDNF-deprived neurons (FIG. 5B legend) [1, 5] | effect on death of NGF-deprived neurons [2, 4] | protection of NGF-deprived neurons (FIG. 5B legend) [2, 5] | initially plated neurons survived ([3]; by sixth day in vitro, GDNF 100 ng/ml or NGF 30 ng/ml, percent of initial neurons counted two hours after plating) | saturating concentration for SCG neurons ([3]; dose-dependence study, neurons maintained six days) [ng/mL] |
| --- | --- | --- | --- | --- | --- | --- |
| COC(=O)CC(NC(=O)OC(C)(C)C)C(=O)CF (stereo not drawn) [BAF, boc-aspartyl(OMe)-fluoromethylketone] | almost completely blocked death | protects | almost completely blocked death | protects |  |  |
| B1 |  |  |  |  | about 34% | 100 |
